Here are results for 36 compounds from ChEMBL document CHEMBL1139555, “Discovery of potent and selective phenylalanine based dipeptidyl peptidase IV inhibitors” (Bioorg Med Chem Lett, 2005).

Structures are written as SMILES.

In assay [1] the target is Dipeptidyl peptidase 4 (Homo sapiens, UniProt P27487).
Assay [2] addresses Dipeptidyl peptidase 8 (Homo sapiens, UniProt Q6V1X1).
For assay [3], the target named is Dipeptidyl peptidase 9 (Homo sapiens, UniProt Q86TI2).
Assay [4] has as its target Dipeptidyl peptidase 2 (Homo sapiens, UniProt Q9UHL4).

Sequence of Dipeptidyl peptidase 8 (Q6V1X1 whole entry): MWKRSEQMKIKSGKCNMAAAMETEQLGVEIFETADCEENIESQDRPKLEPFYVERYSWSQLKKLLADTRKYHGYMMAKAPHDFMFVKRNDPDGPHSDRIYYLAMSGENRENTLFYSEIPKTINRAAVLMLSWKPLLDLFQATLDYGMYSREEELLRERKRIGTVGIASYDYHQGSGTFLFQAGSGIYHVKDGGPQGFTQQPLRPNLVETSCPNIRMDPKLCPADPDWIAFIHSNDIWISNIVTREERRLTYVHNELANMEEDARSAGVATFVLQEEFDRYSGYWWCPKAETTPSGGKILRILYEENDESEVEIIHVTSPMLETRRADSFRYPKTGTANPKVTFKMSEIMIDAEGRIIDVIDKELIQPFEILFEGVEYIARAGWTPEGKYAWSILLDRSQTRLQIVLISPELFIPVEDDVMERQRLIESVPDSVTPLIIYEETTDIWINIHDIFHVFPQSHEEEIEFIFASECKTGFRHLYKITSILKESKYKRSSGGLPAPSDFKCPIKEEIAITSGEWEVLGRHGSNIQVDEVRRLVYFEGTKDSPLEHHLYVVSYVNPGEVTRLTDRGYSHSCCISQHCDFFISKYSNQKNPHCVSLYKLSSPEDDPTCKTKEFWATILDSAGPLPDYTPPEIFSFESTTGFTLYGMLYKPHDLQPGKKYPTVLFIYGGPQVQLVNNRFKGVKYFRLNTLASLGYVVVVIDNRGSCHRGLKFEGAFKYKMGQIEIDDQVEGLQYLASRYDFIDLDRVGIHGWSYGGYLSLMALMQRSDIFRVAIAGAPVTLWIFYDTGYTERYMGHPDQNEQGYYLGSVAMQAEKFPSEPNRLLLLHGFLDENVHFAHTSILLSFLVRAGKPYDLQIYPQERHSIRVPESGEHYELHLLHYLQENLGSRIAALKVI
Sequence of Dipeptidyl peptidase 9 (Q86TI2 whole entry): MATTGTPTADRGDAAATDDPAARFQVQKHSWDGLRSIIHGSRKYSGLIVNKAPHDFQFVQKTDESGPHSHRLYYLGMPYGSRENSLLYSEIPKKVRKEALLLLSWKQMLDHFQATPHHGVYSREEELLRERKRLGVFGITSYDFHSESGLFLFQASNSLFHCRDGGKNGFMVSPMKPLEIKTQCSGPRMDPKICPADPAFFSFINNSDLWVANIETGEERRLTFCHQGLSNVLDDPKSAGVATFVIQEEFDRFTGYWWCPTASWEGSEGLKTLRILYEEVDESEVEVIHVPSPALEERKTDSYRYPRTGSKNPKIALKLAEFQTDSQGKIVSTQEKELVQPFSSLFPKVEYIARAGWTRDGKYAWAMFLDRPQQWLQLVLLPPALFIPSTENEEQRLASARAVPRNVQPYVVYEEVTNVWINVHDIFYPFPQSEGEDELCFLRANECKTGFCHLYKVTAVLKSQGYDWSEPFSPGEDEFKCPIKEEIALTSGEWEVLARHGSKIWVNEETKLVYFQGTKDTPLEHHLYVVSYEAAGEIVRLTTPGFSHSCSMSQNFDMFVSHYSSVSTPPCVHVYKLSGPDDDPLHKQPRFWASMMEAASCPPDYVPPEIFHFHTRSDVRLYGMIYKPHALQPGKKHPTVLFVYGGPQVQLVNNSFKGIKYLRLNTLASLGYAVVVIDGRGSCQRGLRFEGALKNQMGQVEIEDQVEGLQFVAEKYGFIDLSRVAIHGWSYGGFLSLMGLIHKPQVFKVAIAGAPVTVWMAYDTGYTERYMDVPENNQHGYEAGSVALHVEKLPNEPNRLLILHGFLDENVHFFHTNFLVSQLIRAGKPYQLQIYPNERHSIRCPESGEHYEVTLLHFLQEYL
Sequence of Dipeptidyl peptidase 4 (P27487 whole entry): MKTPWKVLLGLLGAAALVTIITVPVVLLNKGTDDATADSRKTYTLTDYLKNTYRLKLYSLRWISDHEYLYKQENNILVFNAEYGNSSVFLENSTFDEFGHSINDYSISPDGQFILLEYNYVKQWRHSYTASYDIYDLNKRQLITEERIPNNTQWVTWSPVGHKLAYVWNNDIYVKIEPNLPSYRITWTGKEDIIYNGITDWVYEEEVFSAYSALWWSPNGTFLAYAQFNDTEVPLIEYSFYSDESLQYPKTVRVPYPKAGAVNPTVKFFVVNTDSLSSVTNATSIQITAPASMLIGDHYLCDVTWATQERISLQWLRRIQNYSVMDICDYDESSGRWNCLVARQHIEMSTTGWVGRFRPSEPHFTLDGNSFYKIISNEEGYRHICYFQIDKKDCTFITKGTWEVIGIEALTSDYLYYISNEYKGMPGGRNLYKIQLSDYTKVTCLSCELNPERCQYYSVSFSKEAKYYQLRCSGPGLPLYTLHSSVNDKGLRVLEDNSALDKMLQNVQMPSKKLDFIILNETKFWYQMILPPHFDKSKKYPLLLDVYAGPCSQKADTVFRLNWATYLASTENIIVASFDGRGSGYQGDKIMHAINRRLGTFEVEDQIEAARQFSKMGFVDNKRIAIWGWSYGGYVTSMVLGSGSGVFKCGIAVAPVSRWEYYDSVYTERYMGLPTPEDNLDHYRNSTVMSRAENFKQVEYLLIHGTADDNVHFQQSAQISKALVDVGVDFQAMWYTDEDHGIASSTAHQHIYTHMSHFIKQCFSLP

In the case of `C[C@@H](c1ccc(S(C)(=O)=O)cc1)[C@H](N)C(=O)N1CC[C@H](F)C1`, the IC50 (commonly the midpoint of a concentration-inhibition curve) in assay [1] was 3600 nM; in assay [2], above 100000 nM; in assay [3], above 100000 nM; in assay [4], 36000 nM.

As for `C[C@@H](c1ccc(-c2cccc(NS(C)(=O)=O)c2)cc1)[C@H](N)C(=O)N1CC[C@H](F)C1`, the IC50 was 150 nM in assay [1], above 100000 nM in assay [2], above 100000 nM in assay [3] and 250 nM in assay [4].

Regarding `C[C@@H](c1ccc(F)cc1Cl)[C@H](N)C(=O)N1CC[C@H](F)C1`, the IC50 in assay [1] was 4200 nM; in assay [2], above 100000 nM; in assay [3], above 100000 nM; in assay [4] it was 46000 nM.

Consider `C[C@@H](c1ccc(C(=O)[n+]2ccc[nH]2)cc1)[C@H](N)C(=O)N1CC[C@H](F)C1`, for which the IC50 in assay [1] was 1700 nM; in assay [3] it was above 100000 nM; in assay [4], 1500 nM.

For the compound `C[C@@H](c1ccccc1F)[C@H](N)C(=O)N1CC[C@H](F)C1`, the IC50 in assay [1] is 1100 nM; in assay [2] it was above 100000 nM; in assay [3] it was above 100000 nM; in assay [4] it was 19000 nM.

For the compound `C[C@@H](c1ccc(-c2cccnc2)cc1)[C@H](N)C(=O)N1CC[C@H](F)C1`, the IC50 in assay [1] is 110 nM; in assay [2], above 100000 nM; in assay [3], above 100000 nM; in assay [4], 4800 nM.

With `C[C@@H](c1ccc(-c2ccc(S(C)(=O)=O)cc2)cc1)[C@H](N)C(=O)N1CC[C@H](F)C1`, the IC50 in assay [1] is 420 nM; in assay [2], above 100000 nM; in assay [3], above 100000 nM; in assay [4] it was 1200 nM.

Take `C[C@@H](c1ccc(-c2ccc(NS(C)(=O)=O)cc2)cc1)[C@H](N)C(=O)N1CC[C@H](F)C1`: the IC50 in assay [1] was 710 nM; in assay [2], above 100000 nM; in assay [3], above 100000 nM; in assay [4], 1800 nM.

For the compound `Cc1ccc(-c2ccc([C@H](C)[C@H](N)C(=O)N3CC[C@H](F)C3)cc2)cc1`, the IC50 in assay [1] was 390 nM; in assay [3], above 100000 nM; in assay [4] it was 1100 nM.

Regarding `C[C@@H](c1ccc(-c2ccccc2)c(F)c1)[C@H](N)C(=O)N1CC[C@H](F)C1`, the IC50 in assay [1] was 2000 nM; in assay [2], above 100000 nM; in assay [3] it was above 100000 nM; in assay [4] it was 48000 nM.

Consider `Cc1ccccc1-c1ccc([C@H](C)[C@H](N)C(=O)N2CC[C@H](F)C2)cc1`, for which the IC50 is above 100000 nM in assay [2], above 100000 nM in assay [3] and 2500 nM in assay [4].

For `C[C@@H](c1ccc(-c2cccc(-n3cnnn3)c2)cc1)[C@H](N)C(=O)N1CC[C@H](F)C1`, the IC50 is 140 nM in assay [1], above 100000 nM in assay [3] and 870 nM in assay [4].

For the compound `COc1ccccc1-c1ccc([C@H](C)[C@H](N)C(=O)N2CC[C@H](F)C2)cc1`, the IC50 in assay [1] was 110 nM; in assay [2] it was above 100000 nM; in assay [3] it was above 100000 nM; in assay [4] it was 3800 nM.

On to `C[C@@H](c1ccc(-c2cc(F)ccc2F)cc1)[C@H](N)C(=O)N1CC[C@H](F)C1`, for which the IC50 in assay [2] was above 100000 nM; in assay [3], above 100000 nM; in assay [4] it was 1300 nM.

Turning to `CSc1ccc([C@H](C)[C@H](N)C(=O)N2CC[C@H](F)C2)cc1`, the results for the IC50 in assay [1] and in assay [4] were 360 nM and 5900 nM, respectively.

For the compound `COc1ccc(-c2ccc([C@H](C)[C@H](N)C(=O)N3CC[C@H](F)C3)cc2)cc1`, the results for the IC50 in assay [1], in assay [3] and in assay [4] were 130 nM, above 100000 nM and 330 nM, respectively.

In the case of `C[C@@H](c1ccc(-c2cccc(C(N)=O)c2)cc1)[C@H](N)C(=O)N1CC[C@H](F)C1`, the IC50 in assay [4] worked out at 820 nM.

For `C[C@@H](c1ccc(-c2cccc(-c3nc[nH]n3)c2)cc1)[C@H](N)C(=O)N1CC[C@H](F)C1`, the IC50 in assay [1] is 98 nM; in assay [2], above 100000 nM; in assay [3] it was above 100000 nM; in assay [4] it was 350 nM.

As to `C[C@@H](c1ccc(-c2cccc(S(N)(=O)=O)c2)cc1)[C@H](N)C(=O)N1CC[C@H](F)C1`, the IC50 in assay [1] was 140 nM; in assay [2], above 100000 nM; in assay [3], above 100000 nM; in assay [4] it was 3600 nM.

Regarding `C[C@@H](c1cc(F)cc(F)c1)[C@H](N)C(=O)N1CC[C@H](F)C1`, the IC50 in assay [1] was 3700 nM; in assay [2], above 100000 nM; in assay [3], above 100000 nM; in assay [4] it was 7800 nM.

For the compound `C[C@@H](c1ccccc1)[C@H](N)C(=O)N1CC[C@H](F)C1`, the half-inhibitory concentration (IC50) in assay [1] was 1400 nM; in assay [2], above 100000 nM; in assay [3], above 100000 nM; in assay [4], 59000 nM.

With `C[C@@H](c1ccccc1)[C@H](N)C(=O)N1CCSC1`, the half-maximal inhibitory concentration (IC50) in assay [1] is 968 nM; in assay [2], above 100000 nM; in assay [3] it was above 100000 nM.

Regarding `C[C@@H](c1ccc(-c2ccccc2F)cc1)[C@H](N)C(=O)N1CC[C@H](F)C1`, the IC50 in assay [1] is 100 nM; in assay [2], above 100000 nM; in assay [3] it was above 100000 nM; in assay [4] it was 1100 nM.

As to `C[C@@H](c1ccc(-c2cc(F)cc(F)c2)cc1)[C@H](N)C(=O)N1CC[C@H](F)C1`, the IC50 in assay [1] was determined as 240 nM; in assay [4], 2000 nM.

Consider `C[C@@H](c1ccc(-c2cccc(NS(=O)(=O)C(F)(F)F)c2)cc1)[C@H](N)C(=O)N1CC[C@H](F)C1`, for which the IC50 in assay [1] is 27 nM; in assay [2], above 100000 nM; in assay [4] it was 1300 nM.

On to `C[C@@H](c1ccc(-c2cccc(-c3n[nH]c(O)n3)c2)cc1)[C@H](N)C(=O)N1CC[C@H](F)C1`, for which the IC50 in assay [1] was 95 nM; in assay [4], 1100 nM.

As for `C[C@@H](c1ccc(-c2cccc(S(C)(=O)=O)c2)cc1)[C@H](N)C(=O)N1CC[C@H](F)C1`, the values for the IC50 in assay [1] and in assay [4] were 110 nM and 2900 nM, respectively.

Turning to `C[C@@H](c1ccc(F)c(Cl)c1)[C@H](N)C(=O)N1CC[C@H](F)C1`, the IC50 worked out at 2800 nM in assay [1] and 5200 nM in assay [4].

For `C[C@@H](c1ccc(F)c(F)c1)[C@H](N)C(=O)N1CC[C@H](F)C1`, the IC50 was 1100 nM in assay [1], above 100000 nM in assay [2] and 11000 nM in assay [4].

For the compound `C[C@@H](c1ccc(-c2ccccc2)cc1)[C@H](N)C(=O)N1CC[C@H](F)C1`, the IC50 is 120 nM in assay [1], above 100000 nM in assay [3] and 3000 nM in assay [4].

For `C[C@@H](c1ccc(F)cc1)[C@H](N)C(=O)N1CC[C@H](F)C1`, the values for the IC50 in assay [2] and in assay [4] were above 100000 nM and 23000 nM, respectively.

For the compound `C[C@@H](c1ccc(-c2cccc(-c3noc(C4CC4)n3)c2)cc1)[C@H](N)C(=O)N1CC[C@H](F)C1`, the values for the IC50 in assay [1], in assay [3] and in assay [4] were 140 nM, above 100000 nM and 96 nM, respectively.

Turning to `C[C@@H](c1ccc(-c2ccc(C(F)(F)F)cc2)cc1)[C@H](N)C(=O)N1CC[C@H](F)C1`, the IC50 in assay [1] was 510 nM; in assay [3], above 100000 nM; in assay [4], 670 nM.

Take `C[C@@H](c1ccc(-c2cccc(-c3c[nH]c(O)n3)c2)cc1)[C@H](N)C(=O)N1CC[C@H](F)C1`: the IC50 amounted to 110 nM in assay [1] and 830 nM in assay [4].

For `C[C@@H](c1ccc(-c2ccc(F)c(F)c2)cc1)[C@H](N)C(=O)N1CC[C@H](F)C1`, the values for the IC50 in assay [1] and in assay [4] were 60 nM and 2000 nM, respectively.

On to `C[C@@H](c1ccc(-c2cncnc2)cc1)[C@H](N)C(=O)N1CC[C@H](F)C1`, for which the values for the IC50 in assay [1], in assay [3] and in assay [4] were 580 nM, above 100000 nM and 10000 nM, respectively.
